# Read-outs that look alike come from different tables or passages of the source.
# What was measured:
# [1] = tested on: human cryopreserved hepatocytes; test: Stability Assay in Cryopreserved Hepatocytes (human); type: in vitro ADME; details: 1 μM, calculated from half-life using the well-stirred model
# Protocol: Test compound was incubated at 1 μM with either rat or human cryopreserved hepatocytes (BioIVT, Westbury, NY) up to 6 hours at 37° C. in a 24-well plate format (1×10^6 cells/mL per well). At specified time points, samples were transferred to a 96-well plate and quenched with 2 volumes of a solution containing 90% acetonitrile 10% methanol 0.1% formic acid and internal standard. Sample plate was centrifuged at 3200 rpm for 15 min and supernatants transferred to a new plate containing half volume of water. The resulting solution was analyzed by LC-MS/MS. Data (analyte to internal standard peak area ratio) was plotted on a semi-log scale and fitted using an exponential fit. Assuming first order kinetics, the half-life (t1/2) and rate of metabolism were determined. Predicted hepatic clearance was calculated from the half-life using the well-stirred model.
# [2] = tested on: HSV-2 virus (MS strain); test: HSV-2 Cellomics Assay (immunofluorescence of HSV protein gD in infected ARPE-19 cells); details: Human alphaherpesvirus 2, ARPE-19, 16 h
# [3] = target: hCAI (Homo sapiens (Human), UniProt P00915); test: Carbonic Anhydrase (Esterase) Biochemical Assay, hCAI
# hCAI, sequence (P00915 whole entry): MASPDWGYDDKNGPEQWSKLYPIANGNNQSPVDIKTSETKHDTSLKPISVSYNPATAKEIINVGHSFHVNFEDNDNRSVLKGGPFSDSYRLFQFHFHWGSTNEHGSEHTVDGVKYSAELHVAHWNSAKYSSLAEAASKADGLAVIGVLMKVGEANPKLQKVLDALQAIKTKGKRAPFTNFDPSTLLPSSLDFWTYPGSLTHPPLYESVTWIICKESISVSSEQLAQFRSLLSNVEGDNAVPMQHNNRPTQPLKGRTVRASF
# Protocol: (§1) 10-dose, 3-fold serial dilutions of compounds were prepared at starting concentrations of 10 mM in 100% DMSO. […] Final starting concentration in the assay was 50 μM. DMSO (no compound) and acetazolamide were included on each microplate as negative and positive controls, respectively.
# (§2) Following a preincubation at room temperature for 15 minutes, 20 μl of a 4 mM solution of 4NPA substrate (Sigma cat #N8130) in assay buffer were added to start the reaction.
# [4] = tested on: HSV-2 virus (MS strain); test: HSV qPCR Assay (HSV replication in ARPE-19 cells); details: Human alphaherpesvirus 2, ARPE-19, read-out: EC50-HSV2-qPCR
# Protocol: HSV replication in the presence or absence of compounds was measured by qPCR according to the following procedure: DMSO stock compound solutions (1-10 mM) were serially diluted (2.5-fold) in DMSO in clear round bottom 96-well plates. Compounds were then diluted 1:20 in assay medium (DMEM/F12 Glutamax+2% Fetal bovine serum+1% Penicillin Streptomycin) and 10 μL of these dilutions were added to 96-well tissue culture plates for final starting concentrations between 0.5 and 5 μM.
# Cells were resuspended in assay medium, counted, and cell density was adjusted to 2.8E+05 cells/ml with assay medium. […] 90 μL of the infection suspension (25,000 cells) were added to assay plates in which compounds were already added. After an overnight incubation at 37° C., cell culture medium was removed, and cell lysis was performed using the prepGEM Universal kit (MicroGEM cat #PUN1000). Specifically, 100 μL of prepGEM master mix (94.75 μL Water, 5 μL buffer, 0.25 μL enzyme stock) were added to each well and plates were incubated at room temperature for 15 minutes, with the 5 last minutes on a plate shaker. The cell lysates were then transferred to a 96-well PCR compatible microplate (Applied Biosystems, Cat #N8010560). Plates were sealed with a heat resistant plastic sealer and heated on a thermal cycler using the following conditions: 75° C. for 10 min, 95° C. for 5 minutes. Finally, plates were cooled down to room temperature with light shaking before proceeding to the qPCR setup.
# Plates were sealed with a clear sealer, spun down, and qPCR reactions were performed in an Applied Biosystems Quantstudio 7 Flex instrument using the following conditions: 95° C. for 2 minutes, then 40 cycles alternating between 95° C. for 5 seconds and 60° C. for 30 seconds.
# Analysis was performed using dCT method where dCT=CT (test)−CT (DMSO). Fold change was calculated using the 2^^dCT equation. This fold change was then converted to percentage relative to DMSO control (no drug). EC50s were determined by non-linear regression analysis using GraphPad Prism software.
# [5] = target: hCAII (Homo sapiens (Human), UniProt P00918); test: Carbonic Anhydrase (Esterase) Biochemical Assay, hCAII
# Protocol: as §1, §2
# [6] = MT-4 CC50 Assay (CellTiter Glo); type: cell-based; details: human, MT-4 cells, luminescence, read-out: CC50-MT4
# Protocol: Compounds were tested in 384-well plates: 18 compounds in duplex. Compounds were diluted in 7 points, 3-fold with DMSO by Bravo. Assay plate, which contains 20 uL medium with compounds, was seeded 2000 MT-4 cells in 20 uL/well by Multi-drop to start the assay. The plate was incubated at 37° C. for 5 days. On 6th day, the CellTiter Glo 40 uL was added in each well. Luminescence was read by Victor II.
# [7] = read-out: EC50-HSV2-10% Human Serum
# [8] = read-out: IC50-hCAI, 4-nitrophenyl acetate hydrolysis, 60 min
# [9] = read-out: IC50-hCAII, 4-nitrophenyl acetate hydrolysis, 60 min
Compound,Predicted human hepatic clearance [1] [mL/min/kg],"EC50 [2, 7] [nM]",EC50 ([2]; read-out: EC50-HSV2-FBS) [nM],"IC50 [3, 8] [nM]",EC50 [4] [nM],"IC50 [5, 9] [nM]",CC50 at 5 days [6] [nM],IC50 [3] [nM],IC50 [5] [nM]
"NS(=O)(=O)c1cc2c(cc1F)C[C@@H](C(F)F)N2C(=O)[C@@H]1Cc2ccc(-c3ccccn3)cc2C1 [Example 128, (S)-2-(difluoromethyl)-5-fluoro-1-((R)-5-(pyridin-2-yl)-2,3-dihydro-1H-indene-2-carbonyl)indoline-6-sulfonamide]",3.5,62.9,8.3,≥ 50000,1.4,7420,–,–,–
"NS(=O)(=O)c1ccc2c(c1)N(C(=O)[C@@H]1Cc3ccc(-c4ccccn4)cc3C1)CC2 [Example 81, (R)-1-(5-(pyridin-2-yl)-2,3-dihydro-1H-indene-2-carbonyl)indoline-6-sulfonamide]",2.33,≥ 25000,20,–,1.9,≥ 25000,≥ 50000,–,–
"NS(=O)(=O)c1cc2c(cc1F)C[C@H](C(F)F)N2C(=O)[C@@H]1Cc2ccc(-c3ccccn3)cc2C1 [Example 127, (R)-2-(difluoromethyl)-5-fluoro-1-((R)-5-(pyridin-2-yl)-2,3-dihydro-1H-indene-2-carbonyl)indoline-6-sulfonamide]",5.67,5440,553,4190,58.3,2460,–,–,–
"C[C@H]1c2ccc(-c3ccccn3)cc2C[C@@H]1C(=O)N1CCc2cc(F)c(S(N)(=O)=O)cc21 [Example 97, 5-fluoro-1-((1R,2S)-1-methyl-5-(pyridin-2-yl)-2,3-dihydro-1H-indene-2-carbonyl)indoline-6-sulfonamide]",–,56,14,–,1.3,–,≥ 50000,≥ 50000,≥ 50000
